Assay results: ChEMBL document CHEMBL1149046, “Insect Inhibitory Steroidal Saccharide Esters from Physalis peruviana” (J Nat Prod, 1994)

Experiments:
Format in all cases: organism-based
Settings in all cases: artemia, in vivo
[1] = Toxicity in brine shrimp at 1000 ppm
[2] = Toxicity in brine shrimp at 500 ppm
[3] = Toxicity in brine shrimp at 250 ppm

CC(=O)OC[C@H]1O[C@@H](OC(=O)/C(C)=C(\C)C[C@@H](O)[C@@H](C)[C@H]2CC[C@H]3[C@@H]4CC=C5C[C@@H](O)C[C@H](O)[C@]5(C)[C@H]4[C@@H](O)C[C@]23C)[C@H](O[C@@H]2O[C@H](CO)[C@@H](O)[C@H](O)[C@H]2O)[C@@H](O)[C@@H]1O
100%: survival at 1000 ppm [1] | survival at 500 ppm [2] | survival at 250 ppm [3]

C/C(C[C@@H](O)[C@@H](C)[C@H]1CC[C@H]2[C@@H]3CC=C4C[C@@H](O)C[C@H](O)[C@]4(C)[C@H]3[C@@H](O)C[C@]12C)=C(/C)C(=O)O[C@@H]1O[C@H](CO)[C@@H](O)[C@H](O)[C@H]1O
100%: survival at 1000 ppm [1] | survival at 500 ppm [2] | survival at 250 ppm [3]

CC(=O)OC[C@H]1O[C@@H](OC(=O)/C(C)=C(\C)C[C@@H](O)[C@@H](C)[C@H]2CC[C@H]3[C@@H]4CC=C5C[C@@H](O[C@@H]6O[C@H](CO)[C@@H](O)[C@H](O)[C@H]6O)C[C@H](O)[C@]5(C)[C@H]4CC[C@]23C)[C@H](O[C@@H]2O[C@H](COC(C)=O)[C@@H](O[C@@H]3O[C@H](CO)[C@@H](O)[C@H](O)[C@H]3O)[C@H](O)[C@H]2O)[C@@H](O)[C@@H]1O
100%: survival at 1000 ppm [1] | survival at 500 ppm [2] | survival at 250 ppm [3]

CC(=O)OC[C@H]1O[C@@H](OC(=O)/C(C)=C(\C)C[C@@H](O)[C@@H](C)[C@H]2CC[C@H]3[C@@H]4CC=C5C[C@@H](O[C@@H]6O[C@H](CO)[C@@H](O)[C@H](O)[C@H]6O)C[C@H](O)[C@]5(C)[C@H]4CC[C@]23C)[C@H](O[C@@H]2O[C@H](CO)[C@@H](O[C@@H]3O[C@H](CO)[C@@H](O)[C@H](O)[C@H]3O)[C@H](O)[C@H]2O)[C@@H](O)[C@@H]1O
100%: survival at 1000 ppm [1] | survival at 500 ppm [2] | survival at 250 ppm [3]

CC(=O)OC[C@H]1O[C@@H](OC(=O)/C(C)=C(\C)C[C@@H](O)[C@@H](C)[C@H]2CC[C@H]3[C@@H]4CC=C5C[C@@H](O[C@@H]6O[C@H](CO)[C@@H](O)[C@H](O)[C@H]6O)C[C@H](O)[C@]5(C)[C@H]4CC[C@]23C)[C@H](O[C@@H]2O[C@H](CO)[C@@H](O)[C@H](O)[C@H]2O)[C@@H](O)[C@@H]1O
100%: survival at 1000 ppm [1] | survival at 500 ppm [2] | survival at 250 ppm [3]

C/C(C[C@@H](O)[C@@H](C)[C@H]1CC[C@H]2[C@@H]3CC=C4C[C@@H](O[C@@H]5O[C@H](CO)[C@@H](O)[C@H](O)[C@H]5O)C[C@H](O)[C@]4(C)[C@H]3CC[C@]12C)=C(/C)C(=O)O[C@@H]1O[C@H](CO)[C@@H](O)[C@H](O)[C@H]1O[C@@H]1O[C@H](CO)[C@@H](O)[C@H](O)[C@H]1O
100%: survival at 1000 ppm [1] | survival at 500 ppm [2] | survival at 250 ppm [3]
